Experimental data published in US5962513A, “2-aminomethyl-chromans effective in the treatment of psychoses and depression” (Bayer Aktiengesellschaft, priority 1991, dated 1999).
Counter-ions that a name gives are not always drawn.

Columns and labels:
sigma receptor = experiment: Affinity for the sigma receptor, DTG binding to calf hippocampus membranes; settings: 3-di-o-tolyl-guanidine (DTG), Ki calculated from IC50
Procedure: 3.) Affinity for the sigma receptor The sigma receptor binding test is described in detail by E. Weber et al. (1986), Proc. Natl. Acad. Sci. 83, 8784-8788 and M. P. Kavanaugh et al., (1988), Proc. Natl. Acad. Sci. 85, 2844. […] In this binding test, IC50 values which indicate the test substance concentration at which 50% of the binding of the radioligand is suppressed are determined. The inhibition constants Ki are calculated from these taking into account the dissociation constants and the concentration of radioligands.

5-HT1A receptor = target: T1, 5-HT1A receptor (Bos taurus, UniProt F6Q2H9); experiment: Affinity for the 5-HT1A receptor, 3H-ipsapiron binding to calf hippocampus membranes; settings: 3H-ipsapiron radioligand
T1 construct: 5-HT1A receptors in calf hippocampus membranes; from tissue; host or cells: calf hippocampus membranes
T1 sequence (F6Q2H9 1-422): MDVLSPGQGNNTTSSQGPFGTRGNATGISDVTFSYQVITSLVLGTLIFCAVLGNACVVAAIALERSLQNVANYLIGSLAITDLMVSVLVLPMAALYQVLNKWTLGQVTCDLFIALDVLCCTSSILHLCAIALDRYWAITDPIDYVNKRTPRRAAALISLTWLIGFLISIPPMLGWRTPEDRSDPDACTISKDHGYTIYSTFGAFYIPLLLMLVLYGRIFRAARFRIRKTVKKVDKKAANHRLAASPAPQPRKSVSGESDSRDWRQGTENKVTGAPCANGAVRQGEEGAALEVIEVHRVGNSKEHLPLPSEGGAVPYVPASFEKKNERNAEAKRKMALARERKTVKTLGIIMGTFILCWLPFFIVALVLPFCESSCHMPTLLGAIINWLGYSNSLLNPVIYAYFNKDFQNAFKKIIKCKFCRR
Procedure: 2.) Affinity for the 5-HT1A receptor [W. U. Dompert et al., Naunyn-Schmeideberg's Arch. Pharmacol. (1985), 328, 467-470]. In this test, the binding of ^3 H-ipsapiron to 5-HT1A receptors in calf hippocampus membranes is measured.

5-HT1 receptor = experiment: Affinity for the 5-HT1 receptor, 3H-serotonin binding to calf hippocampus membranes; settings: 3H-serotonin radioligand
From the text: 1.) Affinity for the 5-HT1 receptor
The high affinity of the compounds according to the invention for 5-hydroxytryptamine receptors of the sub-type 1 is shown by way of example in Table A. The values given are data which have been determined from receptor binding studies using calf hippocampus membrane preparations. ^3 H-Serotonin was used as the radioactively labelled ligand for this.

SMILES | Ki (sigma receptor) [nM] | Ki (5-HT1A receptor) [nM] | Ki (5-HT1 receptor) [nM]
CC(CCCNCC1CCc2ccccc2O1)c1ccccc1 (stereo not drawn) [Example 18] |  |  | 3
COc1cccc2c1OC(CNCc1ccc(C(F)(F)F)cc1)CC2 (stereo not drawn) [Example 22] |  |  | 6
c1ccc(CN2CCC(CNCC3CCc4ccccc4O3)CC2)cc1 (stereo not drawn) [Example 36] | 25 | 0.5 | 
c1ccc2c(c1)CCC(CNCC1CC1)O2 (stereo not drawn) [Example 28] |  | 2.3 | 
COc1cccc2c1O[C@@H](CN(C)CC1CCCCCC1)CC2 [Example 13, 2-(R)-2-(N-Cycloheptylmethyl-N-methyl)aminomethyl-8-methoxy-chroman hydrochloride] | 5 |  | 36

More lines, now with the values ahead:

Ki (sigma receptor) [nM] | Ki (5-HT1A receptor) [nM] | Ki (5-HT1 receptor) [nM] | SMILES
16 | 4.2 |  | c1ccc2c(c1)CCC(CNCC13CC4CC(CC(C4)C1)C3)O2 (stereo not drawn) [Example 31]
8 | 0.7 |  | COc1cccc2c1OC(CNCC1CCCCC1)CC2 (stereo not drawn) [Example 17, N-Cyclohexylmethyl-2-aminomethyl-8-methoxychroman hydrochloride]
7 |  |  | c1ccc2c(c1)CC[C@@H](CNCC1CCCCCC1)O2 [Example 1, S-(+)-2-(N-Cycloheptylmethyl)aminomethyl-chroman hydrochloride]
30 |  | 5 | COc1ccc(CNCC2CCc3cccc(OC)c3O2)cc1 (stereo not drawn) [Example 23]
 | 28 |  | CN(CC1CCN(Cc2ccccc2)CC1)CC1CCc2ccccc2O1 (stereo not drawn) [Example 35]
